In paper PMC12281477, “Live-Cell NanoBRET Assay to Measure AKT Inhibitor Binding to Conformational States of AKT” (ACS Chemical Biology, 2025):
Blank lines part the entries; values can stand above or below the molecule they belong to.

What was measured:
AKT3-E17K-NL = target: T1, AKT3-E17K-NL (Homo sapiens, UniProt Q9Y243, E17K); test: NanoBRET competition assay, AKT3-E17K-NL; type: binding
T1 construct: full-length versions of AKT1, AKT2, and AKT3, were separately subcloned into pNLF1-N or pNLF1-C vectors; expressed in transfected cells

AKT3-NL [1] = target: T2, AKT3-NL (Homo sapiens, UniProt Q9Y243); test: Bioluminescent imaging of AKT3-NL localization in HEK293T cells; type: cell-based; parameters: full-length versions of AKT1, AKT2, and AKT3, were separately subcloned into pNLF1-N or pNLF1-C vectors; expressed in transfected cells; host or cells: HEK293T; conditions: 2 h treatment, compared to DMSO
Procedure: (§1) We also performed bioluminescent imaging on AKT1-NL, AKT2-NL, and AKT3-NL transfected into HEK293T cells treated individually with all AKT inhibitors for 2 h (Figure S1F). […] After incubation, 2 μL of NanoGlo substrate was added to each well and imaged using the GloMax Galaxy Bioluminescence Imager utilizing a 40× objective (Nikon CFI Plan Fluor- Material Number MRH01401) and exposure times ranging from 32 to 100 s. […] Images were processed in Fiji.

AKT1-NL [2] = target: T3, AKT1-NL (Homo sapiens, UniProt P31749); test: Bioluminescent imaging of AKT1-NL localization in HEK293T cells; type: cell-based; conditions: 2 h treatment, compared to DMSO
T3 construct: full-length versions of AKT1, AKT2, and AKT3, were separately subcloned into pNLF1-N or pNLF1-C vectors; expressed in transfected cells; host or cells: HEK293T
Procedure: as §1

AKT2-NL = target: T4, AKT2-NL (Homo sapiens, UniProt P31751); test: Bioluminescent imaging of AKT2-NL localization in HEK293T cells; type: cell-based; conditions: 2 h treatment, compared to DMSO
T4 construct: full-length versions of AKT1, AKT2, and AKT3, were separately subcloned into pNLF1-N or pNLF1-C vectors; expressed in transfected cells; host or cells: HEK293T
Procedure: as §1

MDA-MB-468 cells = test: Resazurin cell viability assay, MDA-MB-468; type: cell-based; conditions: Homo sapiens, MDA-MB-468, 120 h, 5 days, ± SEM, n = 3
MDA-MB-231 cells = test: Resazurin cell viability assay, MDA-MB-231; type: cell-based; conditions: Homo sapiens, MDA-MB-231, 120 h, 5 days, ± SEM, n = 3
AKT1-NL [3] = target: T3, AKT1-NL; test: Live-cell steady-state NanoBRET target engagement assay, AKT1-NL; type: binding
AKT3-NL [4] = target: T2, AKT3-NL; test: Live-cell steady-state NanoBRET target engagement assay, AKT3-NL
Myr-AKT1-NL = target: T5, Myr-AKT1-NL (Homo sapiens, UniProt P31749); test: NanoBRET target engagement assay, Myr-AKT1-NL; type: binding
T5 construct: host or cells: HEK293T
From the text: It was puzzling to understand why ATP-competitive inhibitors bound more tightly to some pathological mutants. […] To achieve an active AKT population characterized by increased phosphorylation and membrane association, we created N-terminally myristoylated AKT1–3-NL constructs (Figure A). AKT myristoylation is commonly used to keep AKT membrane-associated and available for phosphorylation by PDK1 and mTORC2. , We decided to use myristoylation instead of treatment with a PI3K-AKT stimulating hormone such as IGF1 because of transient time-dependent effects on phosphorylation that complicates the reproducibility of our NanoBRET assay. , Bioluminescent imaging of Myr-AKT1-NL, Myr-AKT2-NL, and Myr-AKT3-NL constructs confirmed that each isoform was associated at the cell membrane (Figure S4A).
Statistics were performed in Origin 2023.

PDK1-NL = target: T6, PDK1-NL (Homo sapiens, UniProt O15530); test: NanoBRET competition assay using PDK1-NL; type: binding; conditions: ± SEM, n = 3 biological replicates; read-out: PDK1-NL calculated Ki
T6 sequence (O15530 1-556): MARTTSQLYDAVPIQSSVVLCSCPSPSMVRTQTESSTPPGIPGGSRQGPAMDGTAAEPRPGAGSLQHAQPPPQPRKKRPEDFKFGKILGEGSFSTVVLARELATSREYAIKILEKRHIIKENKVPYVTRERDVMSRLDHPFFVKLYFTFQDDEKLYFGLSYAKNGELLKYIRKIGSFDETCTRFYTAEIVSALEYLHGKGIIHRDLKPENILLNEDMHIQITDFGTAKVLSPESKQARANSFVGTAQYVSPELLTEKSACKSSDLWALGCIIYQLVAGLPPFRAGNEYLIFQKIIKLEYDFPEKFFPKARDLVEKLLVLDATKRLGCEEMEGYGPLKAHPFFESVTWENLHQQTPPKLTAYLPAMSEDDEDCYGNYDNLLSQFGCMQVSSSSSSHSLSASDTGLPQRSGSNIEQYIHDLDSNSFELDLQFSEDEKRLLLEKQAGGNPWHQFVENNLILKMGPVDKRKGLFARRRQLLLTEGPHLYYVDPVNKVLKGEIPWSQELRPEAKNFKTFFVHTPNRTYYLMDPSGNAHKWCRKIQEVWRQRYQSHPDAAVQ

[5] = vs absence of BX-795, 0.2% DMSO

T3 sequence (P31749 whole entry): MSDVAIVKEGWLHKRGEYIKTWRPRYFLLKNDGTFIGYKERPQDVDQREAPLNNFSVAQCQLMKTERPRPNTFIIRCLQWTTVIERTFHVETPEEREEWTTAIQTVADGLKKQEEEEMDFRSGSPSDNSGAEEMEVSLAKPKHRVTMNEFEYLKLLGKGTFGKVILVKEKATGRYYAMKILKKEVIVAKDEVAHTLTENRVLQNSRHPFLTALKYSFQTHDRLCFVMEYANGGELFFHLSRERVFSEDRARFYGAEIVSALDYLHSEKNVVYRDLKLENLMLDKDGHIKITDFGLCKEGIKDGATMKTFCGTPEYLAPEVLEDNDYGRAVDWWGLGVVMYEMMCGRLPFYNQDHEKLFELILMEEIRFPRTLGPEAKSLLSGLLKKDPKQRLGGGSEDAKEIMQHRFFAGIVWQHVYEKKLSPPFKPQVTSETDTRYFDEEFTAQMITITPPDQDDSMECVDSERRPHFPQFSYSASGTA
T2 sequence (Q9Y243 whole entry): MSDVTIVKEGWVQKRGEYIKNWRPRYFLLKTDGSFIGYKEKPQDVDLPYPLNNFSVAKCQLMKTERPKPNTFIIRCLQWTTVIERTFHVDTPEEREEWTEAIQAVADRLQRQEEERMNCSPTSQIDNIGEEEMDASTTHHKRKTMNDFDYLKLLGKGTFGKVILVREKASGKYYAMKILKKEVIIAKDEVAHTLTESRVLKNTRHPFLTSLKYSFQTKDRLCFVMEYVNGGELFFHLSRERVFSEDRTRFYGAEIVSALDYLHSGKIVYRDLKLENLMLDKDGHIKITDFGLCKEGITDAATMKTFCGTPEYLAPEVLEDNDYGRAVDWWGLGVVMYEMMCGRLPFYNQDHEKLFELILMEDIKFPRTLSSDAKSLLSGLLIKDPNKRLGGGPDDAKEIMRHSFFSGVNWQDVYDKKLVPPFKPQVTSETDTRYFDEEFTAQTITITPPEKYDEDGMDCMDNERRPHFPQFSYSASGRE
T5 sequence (P31749 whole entry): as the sequence (P31749 whole entry) above
T4 sequence (P31751 whole entry): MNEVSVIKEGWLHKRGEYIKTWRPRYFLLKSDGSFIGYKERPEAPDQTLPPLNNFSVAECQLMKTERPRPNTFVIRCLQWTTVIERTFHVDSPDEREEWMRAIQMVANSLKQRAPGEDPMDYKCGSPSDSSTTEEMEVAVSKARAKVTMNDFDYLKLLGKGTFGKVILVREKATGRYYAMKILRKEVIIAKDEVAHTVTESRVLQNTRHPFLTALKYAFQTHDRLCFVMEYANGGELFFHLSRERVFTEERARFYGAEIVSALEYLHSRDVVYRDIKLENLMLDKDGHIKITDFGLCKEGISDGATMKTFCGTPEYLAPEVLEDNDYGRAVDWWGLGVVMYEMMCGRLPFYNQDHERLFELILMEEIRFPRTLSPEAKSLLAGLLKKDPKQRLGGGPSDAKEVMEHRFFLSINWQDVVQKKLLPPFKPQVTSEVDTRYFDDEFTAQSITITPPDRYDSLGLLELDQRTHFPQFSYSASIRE
T1 sequence (Q9Y243 whole entry E17K): as the sequence (Q9Y243 whole entry) above, with E17K counted along it

Binding to AKT3-E17K-NL (AKT3-E17K-NL): did not bind
AKT3-NL localization change (AKT3-NL [1]): did not induce AKT localization changes
AKT1-NL localization change (AKT1-NL [2]): did not induce AKT localization changes
AKT2-NL localization change (AKT2-NL): did not induce AKT localization changes
SMILES: NC1(c2ccc(-c3nc4ccn5c(=O)[nH]nc5c4cc3-c3ccccc3)cc2)CCC1 [MK-2206]

SMILES: Cc1n[nH]c2ccc(-c3cncc(OCC(N)Cc4c[nH]c5ccccc45)c3)cc12 (stereo not shown) [A-443654]
IC50 (MDA-MB-468 cells): 20 ± 1 nM
IC50 (MDA-MB-231 cells): 330 ± 10 nM
Ki (AKT1-NL [3]): 32.7 ± 14.1 nM
Binding to AKT1-NL in the presence of 1 μM BX-795 (AKT1-NL [3]; [5]): unaffected
AKT3-NL localization change (AKT3-NL [1]): induced movement of all isoforms to the cell membrane and nucleus
AKT1-NL localization change (AKT1-NL [2]): induced movement of all isoforms to the cell membrane and nucleus
Ki (AKT3-NL [4]): 16.6 ± 5.5 nM
Binding to Myr-AKT1-NL in the presence of 1 μM BX-795 (Myr-AKT1-NL; [5]): bound more weakly

SMILES: CC(C)NC[C@@H](C(=O)N1CCN(c2ncnc3c2[C@H](C)C[C@H]3O)CC1)c1ccc(Cl)cc1 [ipatasertib]
AKT1-NL localization change (AKT1-NL [2]): induced the movement of some AKT to the cell membrane

Concentration at which some binding to AKT1-NL was observed (AKT1-NL [3]; dose-response curve): higher than 1 μM
Ki (PDK1-NL): 5.85 ± 0.42 nM
Concentration at which some binding to Myr-AKT1-NL was observed (Myr-AKT1-NL; dose-response curve): higher than 1 μM
SMILES: O=C(NCCCNc1nc(Nc2cccc(NC(=O)N3CCCC3)c2)ncc1I)c1cccs1 [BX-795]

SMILES: O=c1[nH]c2ccccc2n1C1CCN(Cc2ccc(-c3nc4cc5[nH]cnc5cc4nc3-c3ccccc3)cc2)CC1 [inhibitor VIII]
AKT3-NL localization change (AKT3-NL [1]): did not induce AKT localization changes
AKT1-NL localization change (AKT1-NL [2]): did not induce AKT localization changes
AKT2-NL localization change (AKT2-NL): did not induce AKT localization changes
